Data reported in ChEMBL document CHEMBL6153032, “Discovery of a highly potent, N-terminal domain-targeting degrader of AR-FL/AR-V7 for the treatment of prostate cancer” (Eur J Med Chem, 2025).
Active and inactive are the calls of the source. No cut-off for these calls is given here.

Legend:
[1] = target: T1, Protein cereblon/Androgen receptor (Homo sapiens, UniProt P10275+Q96SW2); assay: PROTAC activity at full length Androgen receptor/CRBN in human 22Rv1 cells assessed as induction of full length androgen receptor degradation at 100 nM incubated for 12 hrs in presence of MLN4924 by Western blot analysis; type: cell-based
Target sequence in this assay (P10275 whole entry, looked up): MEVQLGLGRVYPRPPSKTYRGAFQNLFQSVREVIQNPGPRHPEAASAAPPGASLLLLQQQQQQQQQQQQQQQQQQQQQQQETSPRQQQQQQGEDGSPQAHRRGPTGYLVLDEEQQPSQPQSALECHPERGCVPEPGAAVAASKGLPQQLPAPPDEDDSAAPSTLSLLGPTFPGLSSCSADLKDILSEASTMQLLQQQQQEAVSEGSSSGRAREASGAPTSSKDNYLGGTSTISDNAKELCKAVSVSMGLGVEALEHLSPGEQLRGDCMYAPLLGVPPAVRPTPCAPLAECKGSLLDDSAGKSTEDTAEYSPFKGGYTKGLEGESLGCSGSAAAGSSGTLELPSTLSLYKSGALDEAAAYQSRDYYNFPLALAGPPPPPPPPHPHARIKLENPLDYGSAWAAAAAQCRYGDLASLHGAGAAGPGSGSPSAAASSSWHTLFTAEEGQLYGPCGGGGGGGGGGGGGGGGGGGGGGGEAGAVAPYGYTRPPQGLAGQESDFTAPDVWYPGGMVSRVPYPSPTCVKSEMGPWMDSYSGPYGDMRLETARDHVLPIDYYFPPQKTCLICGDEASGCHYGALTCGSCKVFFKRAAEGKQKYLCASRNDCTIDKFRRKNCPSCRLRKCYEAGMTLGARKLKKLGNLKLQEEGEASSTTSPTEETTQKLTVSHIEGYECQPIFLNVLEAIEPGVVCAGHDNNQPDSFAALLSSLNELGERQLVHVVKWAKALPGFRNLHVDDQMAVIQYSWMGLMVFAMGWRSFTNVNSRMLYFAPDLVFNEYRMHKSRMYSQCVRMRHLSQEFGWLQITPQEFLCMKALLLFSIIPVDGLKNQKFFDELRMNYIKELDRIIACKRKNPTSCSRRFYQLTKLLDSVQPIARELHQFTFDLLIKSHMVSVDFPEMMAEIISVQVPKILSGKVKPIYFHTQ
Target sequence in this assay (Q96SW2 whole entry, looked up): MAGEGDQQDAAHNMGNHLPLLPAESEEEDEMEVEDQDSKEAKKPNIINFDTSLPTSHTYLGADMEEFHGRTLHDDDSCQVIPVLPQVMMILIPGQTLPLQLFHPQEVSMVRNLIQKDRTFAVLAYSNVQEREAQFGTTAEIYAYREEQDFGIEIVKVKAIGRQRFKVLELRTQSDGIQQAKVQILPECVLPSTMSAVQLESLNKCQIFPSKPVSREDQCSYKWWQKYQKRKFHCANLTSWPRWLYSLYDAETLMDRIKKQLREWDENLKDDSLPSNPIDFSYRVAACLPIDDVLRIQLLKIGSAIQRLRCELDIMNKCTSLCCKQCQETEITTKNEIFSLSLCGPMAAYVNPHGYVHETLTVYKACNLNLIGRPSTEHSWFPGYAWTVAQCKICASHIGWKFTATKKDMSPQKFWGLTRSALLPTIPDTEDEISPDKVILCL

[2] = Toxicity in BALB/c mouse assessed as lung damage at 10 mg/kg, iv administered once daily for 21 days by H and E staining based analysis; type: organism-based; details: in vivo, 504 h, time 21 day
[3] = test system: CWR22R; assay: Induction of cell cycle arrest in human 22Rv1 cells assessed as accumulation of cells at S phase at 100 nM incubated for 24 hrs by PI staining based flow cytometry analysis (reference value: 28.73%); type: functional
[4] = test system: Protein cereblon/Androgen receptor (Homo sapiens), P10275+Q96SW2 [UNDEFINED MUTATION]; assay: (§1) PROTAC activity at AR-V7/CRBN in human 22Rv1 cells assessed as reduction in AR-V7 level incubated for 24 hrs by Western blot analysis; type: cell-based; details: CWR22R, dose <= 5.0 µM
[5] = target: T1, Protein cereblon/Androgen receptor; assay: as §1; type: cell-based; details: cwr22r
Target sequence in this assay (P10275 whole entry, looked up, change not shown): as the sequence (P10275 whole entry, looked up) above
Target sequence in this assay (Q96SW2 whole entry, looked up, change not shown): as the sequence (Q96SW2 whole entry, looked up) above

[6] = test system: CWR22R; assay: Downregulation of PSA mRNA level in human 22Rv1 cells incubated for 24 hrs by qRT-PCR analysis; type: functional, cell-based; details: dose 100-500 nM
[7] = test system: CWR22R; assay: Antitumor activity against human 22Rv1 cells xenografted in BALB/c nude mouse assessed as reduction in AR level at 10 mg/kg, iv administered once daily for 21 days; type: functional, organism-based; details: time 21.0 day
[8] = Metabolic stability in rat liver microsome assessed as intrinsic clearance measured upto 45 mins by LC/MS analysis; type: ADME; details: liver microsomes, read-out: CLH
[9] = Metabolic stability in mouse liver microsome assessed as intrinsic clearance measured upto 45 mins by LC/MS analysis; type: ADME; details: liver microsomes, read-out: CLH
[10] = target: T1, Protein cereblon/Androgen receptor; assay: PROTAC activity at full length Androgen receptor/CRBN in human 22Rv1 cells assessed as induction of full length androgen receptor degradation at 100 nM incubated for 12 hrs in presence of Thalidomide by Western blot analysis; type: cell-based
Target sequence in this assay (P10275 whole entry, looked up): as the sequence (P10275 whole entry, looked up) above
Target sequence in this assay (Q96SW2 whole entry, looked up): as the sequence (Q96SW2 whole entry, looked up) above

[11] = target: T1, Protein cereblon/Androgen receptor; assay: PROTAC activity at full length Androgen receptor/CRBN in human LNCaP cells assessed as reduction in full length androgen receptor level at 1 uM by Western blot analysis; type: cell-based; details: time <= 4.0 hrs
Target sequence in this assay (P10275 whole entry, looked up): as the sequence (P10275 whole entry, looked up) above
Target sequence in this assay (Q96SW2 whole entry, looked up): as the sequence (Q96SW2 whole entry, looked up) above

[12] = test system: Protein cereblon/Androgen receptor (Homo sapiens), P10275+Q96SW2 [UNDEFINED MUTATION]; assay: PROTAC activity at AR-V7/CRBN in human 22Rv1 cells assessed as induction of AR-V7 degradation at 0.1 uM incubated for 24 hrs in presence of CHX by Western blot analysis; type: cell-based; details: CWR22R
[13] = test system: CWR22R; assay: Induction of apoptosis in human 22Rv1 cells assessed as late apoptotic cells at 100 nM incubated for 48 hrs by Annexin V/FITC staining based flow cytometry analysis (reference value: 1.12 %); type: functional
[14] = test system: Protein cereblon/Androgen receptor (Homo sapiens), P10275+Q96SW2 [UNDEFINED MUTATION]; assay: PROTAC activity at AR-V7/CRBN in human 22Rv1 cells assessed as induction of AR-V7 degradation at 100 nM incubated for 12 hrs in presence of MLN4924 by Western blot analysis; type: cell-based; details: CWR22R
[15] = test system: CWR22R; assay: Induction of apoptosis in human 22Rv1 cells assessed as viable cells at 500 nM incubated for 48 hrs by Annexin V/FITC staining based flow cytometry analysis (reference value: 94.49%); type: functional; details: read-out: Activity
[16] = target: Protein cereblon/Estrogen receptor (Homo sapiens) (UniProt P03372+Q96SW2); assay: PROTAC activity at CRBN/ERalpha in human 22Rv1 cells assessed as reduction in ERalpha protein level at 0.01 to 5 uM measured after 24 hrs by Western blot analysis; type: cell-based; details: dose 0.01-5 µM
[17] = test system: CWR22R; assay: Induction of apoptosis in human 22Rv1 cells assessed as necrotic cells at 500 nM incubated for 48 hrs by Annexin V/FITC staining based flow cytometry analysis (reference value: 2.31 %); type: functional
[18] = test system: CWR22R; assay: Downregulation of KLK2 mRNA level in human 22Rv1 cells incubated for 24 hrs by qRT-PCR analysis; type: functional, cell-based; details: dose 100-500 nM
[19] = test system: Protein cereblon/Androgen receptor (Homo sapiens), P10275+Q96SW2 [UNDEFINED MUTATION]; assay: PROTAC activity at AR-V7/CRBN in human 22Rv1 cells assessed as induction of AR-V7 degradation at 100 nM incubated for 12 hrs in presence of MG132 by Western blot analysis; type: cell-based; details: CWR22R
[20] = Antiproliferative activity against human MCF-10A cells assessed as cell viability incubated for 4 days by CCK-8 assay; type: toxicity, cell-based
[21] = Initial plasma concentration in Sprague-Dawley rat 2 mg/kg, iv by LC-MS/MS analysis; type: ADME, organism-based
[22] = Metabolic stability in human liver microsome assessed as half life measured upto 45 mins by LC/MS analysis; type: ADME; details: liver microsomes
[23] = test system: CWR22R; assay: Induction of cell cycle arrest in human 22Rv1 cells assessed as accumulation of cells at G0/G1 phase at 100 nM incubated for 24 hrs by PI staining based flow cytometry analysis (reference value: 62.66%); type: functional
[24] = Volume of distribution at steady state in Sprague-Dawley rat 2 mg/kg, iv by LC-MS/MS analysis; type: ADME, organism-based; details: in vivo, read-out: Vdss
[25] = target: T1, Protein cereblon/Androgen receptor; assay: PROTAC activity at full length Androgen receptor/CRBN in human 22Rv1 cells assessed as reduction in full length androgen receptor level incubated for 24 hrs by Western blot analysis; type: cell-based
[26] = target: T1, Protein cereblon/Androgen receptor; assay: PROTAC activity at full length Androgen receptor/CRBN in human 22Rv1 cells assessed as reduction in full length androgen receptor level at 100 nM incubated for 24 hrs by immunofluorescence analysis; type: cell-based
Target sequence in this assay (P10275 whole entry, looked up): as the sequence (P10275 whole entry, looked up) above
Target sequence in this assay (Q96SW2 whole entry, looked up): as the sequence (Q96SW2 whole entry, looked up) above

[27] = Toxicity in BALB/c mouse assessed as body weight loss at 10 mg/kg, iv administered once daily for 21 days; type: organism-based; details: in vivo, 504 h, time 21 day
[28] = test system: Protein cereblon/Androgen receptor (Homo sapiens), P10275+Q96SW2 [UNDEFINED MUTATION]; assay: PROTAC activity at AR-V7/CRBN in human 22Rv1 cells assessed as reduction in AR-V7 level at 1 uM by Western blot analysis; type: cell-based; details: CWR22R, time 6.0 hrs
[29] = AUC (0 to t) in Sprague-Dawley rat 2 mg/kg, iv by LC-MS/MS analysis; type: ADME, organism-based; details: in vivo
[30] = test system: CWR22R; assay: Induction of cell cycle arrest in human 22Rv1 cells assessed as accumulation of cells at G0/G1 phase at 500 nM incubated for 24 hrs by PI staining based flow cytometry analysis (reference value: 62.66%); type: functional
[31] = test system: CWR22R; assay: Antitumor activity against human 22Rv1 cells xenografted in BALB/c nude mouse assessed as suppression of tumor growth at 10 mg/kg, iv administered once daily for 21 days; type: functional, organism-based; details: time 21.0 day
[32] = test system: CWR22R; assay: Induction of apoptosis in human 22Rv1 cells assessed as early apoptotic cells at 500 nM incubated for 48 hrs by Annexin V/FITC staining based flow cytometry analysis (reference value: 2.08 %); type: functional
[33] = test system: CWR22R; assay: Downregulation of TMPRSS2 mRNA level in human 22Rv1 cells incubated for 24 hrs by qRT-PCR analysis; type: functional, cell-based; details: dose 100-500 nM
[34] = test system: CWR22R; assay: Induction of cell cycle arrest in human 22Rv1 cells assessed as accumulation of cells at G2/M phase at 500 nM incubated for 24 hrs by PI staining based flow cytometry analysis (reference value: 8.61%); type: functional
[35] = Toxicity in BALB/c mouse assessed as kidney damage at 10 mg/kg, iv administered once daily for 21 days by H and E staining based analysis; type: organism-based; details: in vivo, 504 h, time 21 day
[36] = MRT (0 to infinity) in Sprague-Dawley rat 2 mg/kg, iv by LC-MS/MS analysis; type: ADME, organism-based; details: in vivo

Sequence of Protein cereblon/Androgen receptor (Homo sapiens), P10275+Q96SW2 [UNDEFINED MUTATION] (P10275 whole entry, looked up, stated change not applied): as the sequence (P10275 whole entry, looked up) above
Sequence of Protein cereblon/Androgen receptor (Homo sapiens), P10275+Q96SW2 [UNDEFINED MUTATION] (Q96SW2 whole entry, looked up, stated change not applied): as the sequence (Q96SW2 whole entry, looked up) above
Sequence of Protein cereblon/Estrogen receptor (Homo sapiens) (P03372 whole entry, looked up): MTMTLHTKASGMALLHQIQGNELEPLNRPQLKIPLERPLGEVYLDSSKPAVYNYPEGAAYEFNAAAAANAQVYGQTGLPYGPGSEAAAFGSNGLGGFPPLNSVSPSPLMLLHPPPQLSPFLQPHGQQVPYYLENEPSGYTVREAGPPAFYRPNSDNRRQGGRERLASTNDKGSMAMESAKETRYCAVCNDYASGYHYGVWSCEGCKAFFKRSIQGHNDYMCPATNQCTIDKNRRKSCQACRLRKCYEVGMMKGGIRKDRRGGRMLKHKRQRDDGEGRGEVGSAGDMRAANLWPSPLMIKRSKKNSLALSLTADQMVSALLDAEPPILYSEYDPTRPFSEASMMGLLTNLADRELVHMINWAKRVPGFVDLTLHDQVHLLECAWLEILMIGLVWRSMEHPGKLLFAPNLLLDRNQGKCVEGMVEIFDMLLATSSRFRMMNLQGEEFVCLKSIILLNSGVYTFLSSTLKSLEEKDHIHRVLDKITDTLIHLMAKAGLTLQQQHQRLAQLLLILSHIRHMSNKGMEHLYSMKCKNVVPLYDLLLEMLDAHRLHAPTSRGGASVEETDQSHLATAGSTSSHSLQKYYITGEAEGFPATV
Sequence of Protein cereblon/Estrogen receptor (Homo sapiens) (Q96SW2 whole entry, looked up): as the sequence (Q96SW2 whole entry, looked up) above

## CC(C)(c1ccc(OCCNc2cccc3c2C(=O)N(C2CCC(=O)NC2=O)C3=O)cc1)c1ccc(OCc2cccc(N3CCOCC3)n2)cc1 (configuration not stated)
[1]
  Activity: Active
[2]
  Activity: Non-toxic
[3]
  Activity: 43.39%
[4]
  Activity: Dose-dependent-effect
[5]
  DC50: 26 nM
[6]
  Activity: Dose-dependent-effect
[7]
  Activity: Active
[8]
  CLint scaled: 40.8 mL/min/kg
[9]
  CLint scaled: 296 mL/min/kg
[10]
  Activity: Active
[11]
  Activity: Dose-dependent-effect
[12]
  Activity: Active
[13]
  Activity: 12.29%
[14]
  Activity: Active
[15]
  viability at 0.5 µM: 65.1%
[16]
  Activity: Active
[17]
  Activity: 2.4%
[18]
  Activity: Dose-dependent-effect
[19]
  Activity: Active
[20]
  IC50 at 4 days: > 80000 nM
[21]
  C0: 13900 ng/mL
[22]
  half-life: 37.2 min
[23]
  Activity: 41.16%
[24]
  Vd: 0.571 L/kg
[25]
  DC50: 180 nM
[25]; dose <= 5.0 µM
  Activity: Dose-dependent-effect
[26]
  Activity: Active
[27]
  Activity: Non-toxic
[28]
  Activity: Time-dependent-effect
[29]
  AUC(0-t): 2210 ng·h/mL
[30]
  Activity: 39.88%
[31]
  Activity: Active
[32]
  Activity: 16.93%
[33]
  Activity: Dose-dependent-effect
[34]
  Activity: 21.54%
[35]
  Activity: Non-toxic
[36]
  MRT inf: 37.2 min
